# Like-named read-outs stand apart in the source and are kept apart here.
# Experiments:
# A549 = test: MTT cell viability assay, A549; assay type: cell-based, human; conditions: for IC50: Homo sapiens; for Selectivity index (SI): ratio of IC50 values healthy (HEK293) / A549
# From the text: (§1) Blokhin National Medical Research Center of Oncology (the Ministry of Health of the Russian Federation, Moscow).
# HEK293 = test: MTT cell viability assay, HEK293; assay type: cell-based; conditions: Homo sapiens
# From the text: as §1
# HBL-100/Dox = test: MTT cell viability assay, HBL-100/Dox; assay type: cell-based, human; conditions: for IC50: Homo sapiens; for Selectivity index (SI): ratio of IC50 values healthy (HEK293) / HBL-100/Dox
# Method: (§2) The cells were cultured in a humidified CO2 incubator (model 460-CE; Thermo Fisher Scientific, Waltham, MA, USA) at +37 °C and 5% CO2.
# (§3) The percentage of the viable cells was calculated according to the following equation: cell viability (%) = 100 × (mean absorbance in the treatment group/mean absorbance in the control group). The results were expressed pictorially using Prism 6.0 (GraphPad Software, Boston, MA, USA).
# HCT116 = test: MTT cell viability assay, HCT116; assay type: cell-based, human; conditions: for IC50: Homo sapiens, HCT-116; for Selectivity index (SI): ratio of IC50 values healthy (HEK293) / HCT116
# From the text: as §1
# MS = test: MTT cell viability assay, MS; assay type: cell-based, human; conditions: for IC50: Homo sapiens; for Selectivity index (SI): ratio of IC50 values healthy (HEK293) / MS;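 for IC50 (mean ± SD): MS is a melanocyte cell line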
# From the text: as §1
# RD TE32 = test: MTT cell viability assay, RD TE32; assay type: cell-based, human; conditions: for IC50: Homo sapiens; for Selectivity index (SI): ratio of IC50 values healthy (HEK293) / RD TE32
# From the text: as §1
# MCF-7 = test: MTT cell viability assay, MCF-7; assay type: cell-based, human; conditions: for IC50: Homo sapiens, MCF7; for Selectivity index (SI): ratio of IC50 values healthy (HEK293) / MCF-7
# From the text: as §1
# human cancer cell lines = test: MTT assay, panel of cancer cell lines; conditions: for IC50: Homo sapiens; for cytotoxicity in the screening studies: MTT screening, Table S1
# Method: In this study, the human embryonic kidney cell line HEK293 was used as the non-cancerous cell line.
# To investigate the cytotoxic activity of the compounds under study, the MTT colorimetric assay [45] was performed. […] After 72 h, 20 μL of 5 mg/mL solution of MTT (PanEco, Moscow, Russia), in sterile phosphate-buffered saline (PBS; PanEco, Moscow, Russia), was added to each well and further incubated for 4 h. Then, the medium with the compounds was removed, and the formed formazan crystals were dissolved in 100 μL of DMSO. […] The IC50 values were determined from dose-dependent curves, using Prism 6.0 (GraphPad Software, Boston, MA, USA).
# HEpG2 = test: MTT cell viability assay, HEpG2; assay type: cell-based, human; conditions: for IC50: Homo sapiens, HEpG2, MTT, 72 h of treatment, read-out: IC50 Values (Mean ± SD); for Selectivity index (SI): ratio of IC50 values healthy (HEK293) / HEpG2
# From the text: as §1
# HBL-100 = test: MTT cell viability assay, HBL-100; assay type: cell-based, human; conditions: for IC50: Homo sapiens; for Selectivity index (SI): ratio of IC50 values healthy (HEK293) / HBL-100
# Method: as §2, §3
# PC-3 = test: MTT cell viability assay, PC-3; assay type: cell-based, human; conditions: for IC50: Homo sapiens; for Selectivity index (SI): ratio of IC50 values healthy (HEK293) / PC-3
# From the text: as §1
# [1] = A549, MTT, 72 h of treatment, read-out: IC50 Values (Mean ± SD)
# [2] = Table S1, A549, read-out: IC50 (mean ± SD)
# [3] = HEK293, MTT, 72 h of treatment, read-out: IC50 Values (Mean ± SD)
# [4] = Table S1, HEK293, read-out: IC50 (mean ± SD)
# [5] = HBL-100, 72 h, read-out: IC50 Values (Mean ± SD)
# [6] = HBL-100, read-out: IC50 (mean ± SD)
# [7] = HCT116, MTT, 72 h of treatment, read-out: IC50 Values (Mean ± SD)
# [8] = MS, MTT, 72 h of treatment, read-out: IC50 Values (Mean ± SD)
# [9] = RD TE32, MTT, 72 h of treatment, read-out: IC50 Values (Mean ± SD)
# [10] = Table S1, RD TE32, read-out: IC50 (mean ± SD)
# [11] = MCF-7, MTT, 72 h of treatment, read-out: IC50 Values (Mean ± SD)
# [12] = HBL-100, MTT, 72 h of treatment, read-out: IC50 Values (Mean ± SD)
# [13] = Table S1, HBL-100, read-out: IC50 (mean ± SD)
# [14] = PC-3, MTT, 72 h of treatment, read-out: IC50 Values (Mean ± SD)
# [15] = Table S1, PC-3, read-out: IC50 (mean ± SD)
SMILES,IC50 (A549; [1]) [µM],IC50 (A549; [2]) [µM],Selectivity index (SI) (A549),IC50 (HEK293; [3]) [µM],IC50 (HEK293; [4]) [µM],IC50 (HBL-100/Dox; [5]) [µM],IC50 (HBL-100/Dox; [6]) [µM],Selectivity index (SI) (HBL-100/Dox),IC50 (HCT116; [7]) [µM],Selectivity index (SI) (HCT116),IC50 (MS; [8]) [µM],Selectivity index (SI) (MS),IC50 (RD TE32; [9]) [µM],IC50 (RD TE32; [10]) [µM],Selectivity index (SI) (RD TE32),melting point [°C],IC50 (MCF-7; [11]) [µM],Selectivity index (SI) (MCF-7),cytotoxicity in the screening studies (human cancer cell lines),IC50 (HEpG2) [µM],other results
"COC(=O)[C@]12CCC(C(C)C)C1C1CCC3[C@@]4(C)C[C@@H](C#N)C[C@H](O)C4CC[C@@]3(C)[C@]1(C)CC2 (stereo partly drawn) [compound 19, 2-Cyano-4β-hydroxy-3,4-seco-3,23-dinor-2,24-cyclolup-28-oic acid methyl ester]",25.9 ± 1.8,25.9 ± 1.75,1.34,34.6 ± 1.1,34.6 ± 1.09,21.1 ± 2.2,21.1 ± 2.23,1.64,28.2 ± 2.1,1.23,22.2 ± 2,1.56,25.2 ± 0.1,25.17 ± 0.11,1.37,189.7,47.9 ± 0.3,0.72,relatively weak or moderate cytotoxicity,31.8 ± 2.7,"IC50 (HCT116; Table S1, HCT116, read-out: IC50 (mean ± SD)): 28.2 ± 2.06 µM; IC50 (human cancer cell lines; read-out: moderate activity (range)): 16 to 77.8 µM; Selectivity index (SI) (HEpG2): 1.09; IC50 (HBL-100; [12]): 16 ± 0.9 µM; IC50 (HBL-100; [13]): 16 ± 0.94 µM; Selectivity index (SI) (HBL-100): 2.16; IC50 (PC-3; [14]): 17.2 ± 0.7 µM; IC50 (PC-3; [15]): 17.2 ± 0.69 µM; Selectivity index (SI) (PC-3): 2.01"
"COC(=O)[C@]12CCC(C(C)C)C1C1CCC3[C@@](C)(CCC#N)C(C(=O)CBr)CC[C@@]3(C)[C@]1(C)CC2 (some centres unmarked) [compound 30, 24-Bromo-2-cyano-4-oxo-3,4-seco-3,23-dinorlupan-28-oic acid methyl ester]",27.7 ± 0.3,27.7 ± 0.31,0.87,24.2 ± 0.5,24.2 ± 0.45,4.5 ± 0.2,4.53 ± 0.21,5.37,13.5 ± 0.3,1.79,45.9 ± 2.2,0.53,7.1 ± 0.9,7.05 ± 0.91,3.41,124.4,12 ± 0.1,2.02,relatively weak or moderate cytotoxicity,49.6 ± 0.5,"IC50 (MS; Table S1, MS, read-out: IC50 (mean ± SD)): 46 ± 2.2 µM; IC50 (MCF-7; Table S1, MCF-7, read-out: IC50 (mean ± SD)): 12.04 ± 0.06 µM; IC50 (human cancer cell lines; read-out: cytotoxic values (range)): 3.6 to 13.5 µM; Selectivity index (SI) (HEpG2): 0.49; IC50 (HBL-100; [12]): 3.6 ± 0.3 µM; IC50 (HBL-100; [13]): 3.62 ± 0.33 µM; Selectivity index (SI) (HBL-100): 6.72; IC50 (PC-3; [14]): 34 ± 1.3 µM; IC50 (PC-3; [15]): 34.1 ± 1.28 µM; Selectivity index (SI) (PC-3): 0.71"

# Reference: PMC10298530, “Synthesis and Anticancer Activity of A-Ring-Modified Derivatives of Dihydrobetulin” (International Journal of Molecular Sciences, 2023)
